Measurements taken from patent US8703761B2, “Organic compounds” (Novartis AG, priority 2008, dated 2014).

Biological target: human DGAT1 (Homo sapiens (Human), UniProt O75907)
Experiment: DGAT1 Inhibition Assay
Assay type: biochemical
Details: membrane preparation from Sf9 cells overexpressing human (His)6DGAT1; LC/MS/MS readout
Protocol: The enzyme preparation used in this assay is a membrane preparation from Sf9 cells overexpressing human (His)6DGAT1. During all steps samples were chilled to 4° C. Sf9 cells expressing human (His)6DGAT1 were thawed at room temperature and re-suspended at a 10:1 ratio (mL buffer/g of cells) in 50 mM HEPES, 1× Complete Protease Inhibitor, pH 7.5. The re-suspended pellet was homogenized for 1 min using a Brinkman PT 10/35 homogenizer with a 20 mm generator. Cells were lysed using Avestin Emulsiflex (chilled to 4° C.) at 10000-15000 psi. Lysate was centrifuged at 100,000×g for 1 h at 4° C. Supernatant was removed and pellets were re-suspended in 50 mM HEPES, 1× Complete Protease Inhibitor, pH 7.5 at ⅙ the volume of supernatant. Re-suspended pellets were pooled and homogenized with 10 strokes of a Glas-Col motor driven teflon pestle on setting 70. The protein concentration of the membrane preparation was quantified using BCA protein assay with 1% SDS. The membrane preparation was aliquoted, frozen on dry ice, and stored at −80° C.
For 50 mL, 25 mL of 0.2 M HEPES stock buffer, 0.5 mL of 1 M MgCl2 ([…]), and 24.5 mL of milli-Q H2O are added to the 55 mL Wheaton Potter-Elvehjem homogenizer. Enzyme preparation (0.1 mL) is added to buffer and the mixture is homogenized with 5 strokes on ice using the Glas-Col variable speed homogenizer system on setting 70.
For 50 mL, 0.5 mL 10 mM diolein is added to 9.5 mL of EtOH in a 50 mL Falcon screw cap conical centrifuge tube. Five mL of 10 mM sodium acetate pH 4.5 is added followed by 0.5 mL of 10 mM oleoyl-CoA. Finally, the remaining 4.5 mL of 10 mM sodium acetate pH 4.5 is added followed by 30 mL of milli-Q H20. The solution should be gently agitated by hand to induce mixing. The final concentrations of EtOH and sodium acetate are 20% and 2 mM, respectively.
Dry compounds are dissolved in the appropriate volume of DMSO to a final concentration of 10 mM. A 10-point, 3-fold dose response is used to evaluate compound potency. All dilutions are performed in DMSO in a Greiner 384-well microplate. • 1. 2 μL of compound in DMSO is added to the appropriate wells, 2 μL of DMSO is added to 100% activity and 100% inhibition controls. • 2. 25 μL of enzyme mix is added to all wells and plate(s) are incubated for 10 min at RT. • 3. 10 μL of 20% acetic acid quench is added to 100% inhibition control wells. Plate(s) are vortexed using Troemner multi-tube vortexer (setting 7 for 10 sec). • 4. 25 μL of substrate mix is added to all wells. Plate(s) are vortexed using Troemner multi-tube vortexer (setting 7 for 10 sec). Plate(s) are incubated for 30 min at RT. • 5. 10 μL of 20% acetic acid quench is added to all wells. Plate(s) are vortexed using Troemner multi-tube vortexer (setting 7 for 10 sec). • 6. 50 μL of 1-butanol w/glyceryl tripalmitoleate internal standard is added to all wells. • 7. Plate(s) are sealed with super pierce strong plate sealer using the thermo-sealer. • 8. Plate(s) are vortexed using Troemner multi-tube vortexer (setting 10 for 5 min). • 9. Plate(s) are centrifuged at 162×g (1000 rpm for GH-3.8 rotor) for 5 min using Beckman GS-6R tabletop centrifuge.
Samples were analyzed by LC/MS/MS using a Waters 1525μ LC and Quattro Micro API MS. Where indicated, tripalmitolein was used as an internal standard to control for instrument variation.
Data is converted to % inhibition prior to curve fitting using the following equation: […]

Sequence of human DGAT1 (O75907 whole entry): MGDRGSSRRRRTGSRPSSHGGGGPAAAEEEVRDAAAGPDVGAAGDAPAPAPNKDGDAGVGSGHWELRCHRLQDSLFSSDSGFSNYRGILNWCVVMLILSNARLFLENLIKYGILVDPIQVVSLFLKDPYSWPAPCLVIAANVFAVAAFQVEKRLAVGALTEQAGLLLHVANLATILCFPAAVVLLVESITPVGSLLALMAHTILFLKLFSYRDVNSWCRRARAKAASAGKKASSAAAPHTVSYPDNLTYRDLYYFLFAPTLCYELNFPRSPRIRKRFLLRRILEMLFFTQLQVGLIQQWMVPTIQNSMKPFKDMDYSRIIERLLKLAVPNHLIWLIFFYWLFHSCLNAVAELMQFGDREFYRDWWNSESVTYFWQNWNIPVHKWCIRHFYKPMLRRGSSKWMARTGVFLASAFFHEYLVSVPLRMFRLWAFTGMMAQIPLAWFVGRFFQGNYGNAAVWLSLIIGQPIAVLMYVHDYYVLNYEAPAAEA

IC50 | Compound
0.0545 µM | O=C(Nc1cc(-c2ccccc2)c2ccccc2n1)C1CCCN1C(=O)CC1CCCC1 (stereo in doubt) [Example 8-1, (S)-1-(2-Cyclopentyl-acetyl)-pyrrolidine-2-carboxylic acid (4-phenyl-quinolin-2-yl)-amide]
0.0605 µM | CCOc1ccc(C(=O)NC(C)(C)C(=O)Nc2nc(-c3ccccc3)c(Cc3ccccc3)s2)cc1OCC [Example 1-1, N-[1-(5-Benzyl-4-phenyl-thiazol-2-ylcarbamoyl)-1-methyl-ethyl]-3,4-diethoxy-benzamide]
0.241 µM | CC(C)(NS(=O)(=O)c1ccc(F)cc1)C(=O)Nc1nc(-c2ccccc2)c(Cc2ccccc2)s1 [Example 1-6, N-(5-Benzyl-4-phenyl-thiazol-2-yl)-2-(4-fluoro-benzenesulfonylamino)-2-methyl-propionamide]
0.0085 µM | COc1ccccc1C(=O)NC(C)(C)C(=O)Nc1nc(-c2ccccc2)c(Cc2ccccc2)s1 [Example 1-8, N-[1-(5-Benzyl-4-phenyl-thiazol-2-ylcarbamoyl)-1-methyl-ethyl]-2-methoxy-benzamide]
0.011 µM | CC(C)(NC(=O)c1ccc2occc2c1)C(=O)Nc1nc(-c2ccccc2)c(Cc2ccccc2)s1 [Example 1-28, Benzofuran-5-carboxylic acid [1-(5-benzyl-4-phenyl-thiazol-2-ylcarbamoyl)-1-methyl-ethyl]-amide]
0.0035 µM | CC(C)(NC(=O)c1ccccn1)C(=O)Nc1nc(-c2ccccc2)c(Cc2ccccc2)s1 [Example 1-29, Pyridine-2-carboxylic acid [1-(5-benzyl-4-phenyl-thiazol-2-ylcarbamoyl)-1-methyl-ethyl]-amide]
0.232 µM | Cc1ccccc1NC(=O)N1CCCC1C(=O)Nc1nc(-c2ccccc2)c(Cc2ccccc2)s1 (stereo not shown) [Example 4-2, Pyrrolidine-1,2-dicarboxylic acid 2-[(5-benzyl-4-phenyl-thiazol-2-yl)-amide] 1-o-tolylamide]
0.473 µM | O=C(Nc1nc(-c2ccccc2)c(Cc2ccccc2)s1)[C@@H]1CCCN1C(=O)Nc1ccc(C(F)(F)F)cc1F [Example 4-9, (S)-Pyrrolidine-1,2-dicarboxylic acid 2-[(5-benzyl-4-phenyl-thiazol-2-yl)-amide] 1-[(2-fluoro-4-trifluoromethyl-phenyl)-amide]]
0.91 µM | CC(C)(NC(=O)c1ccc(OC(F)(F)F)cc1)C(=O)Nc1nc(-c2ccc(F)cc2)c(Oc2ccc(F)cc2)s1 [Example 6-1, N-{1-[5-(4-Fluoro-phenoxy)-4-(4-fluoro-phenyl)-thiazol-2-ylcarbamoyl]-1-methyl-ethyl}-4-trifluoromethoxybenzamide]
0.0525 µM | CC(C)(NC(=O)N1CCOCC1)C(=O)Nc1nc(-c2ccc(F)cc2)c(Oc2ccc(F)cc2)s1 [Example 6-2, Morpholine-4-carboxylic acid {1-[5-(4-fluoro-phenoxy)-4-(4-fluoro-phenyl)-thiazol-2-ylcarbamoyl]-1-methyl-ethyl}-amide]
0.622 µM | CC(C)(NC(=O)c1cccnc1)C(=O)Nc1nc(-c2ccc(F)cc2)c(Oc2ccc(F)cc2)s1 [Example 6-9, N-{1-[5-(4-Fluoro-phenoxy)-4-(4-fluoro-phenyl)-thiazol-2-ylcarbamoyl]-1-methyl-ethyl}-nicotinamide]
0.197 µM | CC(C)(NC(=O)c1cncs1)C(=O)Nc1nc(-c2ccc(F)cc2)c(Oc2ccc(F)cc2)s1 [Example 6-14, Thiazole-5-carboxylic acid {1-[5-(4-fluoro-phenoxy)-4-(4-fluoro-phenyl)-thiazol-2-ylcarbamoyl]-1-methyl-ethyl}-amide]
0.24 µM | Cc1ccc(-c2cc(NC(=O)[C@@H]3CCCN3C(=O)OC(C)(C)C)nc(-c3ccccc3)c2)cc1 [Example 8-2, (S)-2-(6-Phenyl-4-p-tolyl-pyridin-2-ylcarbamoyl)-pyrrolidine-1-carboxylic acid tert-butyl ester]
1.18 µM | CC1(C(=O)NC(C)(C)C(=O)Nc2nc(C(F)(F)F)c(C(=O)c3ccc(F)cc3)s2)CC1 [Example 12-3, 1-Methyl-cyclopropanecarboxylic acid {1-[5-(4-fluoro-benzoyl)-4-trifluoromethyl-thiazol-2-ylcarbamoyl]-1-methyl-ethyl}-amide]
2.08 µM | CC(C)(NC(=O)N1CCCOCC1)C(=O)Nc1nc(C(F)(F)F)c(C(=O)c2ccc(F)cc2)s1 [Example 12-4, [1,4]Oxazepane-4-carboxylic acid {1-[5-(4-fluoro-benzoyl)-4-trifluoromethyl-thiazol-2-ylcarbamoyl]-1-methyl-ethyl}-amide]
2.3 µM | CN1CCC[C@H]1C(=O)NC(C)(C)C(=O)Nc1nc(-c2ccc(F)cc2)n(Cc2ccccc2)n1 [Example 14-3, (S)-1-Methyl-pyrrolidine-2-carboxylic acid {1-[1-benzyl-5-(4-fluoro-phenyl)-1H-[1,2,4]triazol-3-ylcarbamoyl]-1-methyl-ethyl}-amide]
0.225 µM | CC(C)(NC(=O)c1ccccn1)C(=O)Nc1nc(-c2ccc(F)cc2)n(Cc2ccccc2)n1 [Example 14-4, Pyridine-2-carboxylic acid {1-[1-benzyl-5-(4-fluoro-phenyl)-1H-[1,2,4]triazol-3-ylcarbamoyl]-1-methyl-ethyl}-amide]
1.75 µM | CC(C)(NC(=O)c1cnco1)C(=O)Nc1nc(-c2ccc(F)cc2)n(Cc2ccccc2)n1 [Example 14-24, Oxazole-5-carboxylic acid {1-[1-benzyl-5-(4-fluoro-phenyl)-1H-[1,2,4]triazol-3-ylcarbamoyl]-1-methyl-ethyl}-amide]
6.13 µM | Cc1cc(C(=O)NC(C)(C)C(=O)Nc2nc(-c3ccc(F)cc3)n(Cc3ccccc3)n2)no1 [Example 14-28, 5-Methyl-isoxazole-3-carboxylic acid {1-[1-benzyl-5-(4-fluoro-phenyl)-1H-[1,2,4]triazol-3-ylcarbamoyl]-1-methyl-ethyl}-amide]
